This note sets out measurements from ChEMBL document CHEMBL5726596, “Pyrazolo pyrimidine derivatives and their use as MALT1 inhibitors” (2017).

The target of the test is T1, Mucosa-associated lymphoid tissue lymphoma translocation protein 1 (Homo sapiens, UniProt Q9UDY8).
T1 sequence (Q9UDY8 whole entry): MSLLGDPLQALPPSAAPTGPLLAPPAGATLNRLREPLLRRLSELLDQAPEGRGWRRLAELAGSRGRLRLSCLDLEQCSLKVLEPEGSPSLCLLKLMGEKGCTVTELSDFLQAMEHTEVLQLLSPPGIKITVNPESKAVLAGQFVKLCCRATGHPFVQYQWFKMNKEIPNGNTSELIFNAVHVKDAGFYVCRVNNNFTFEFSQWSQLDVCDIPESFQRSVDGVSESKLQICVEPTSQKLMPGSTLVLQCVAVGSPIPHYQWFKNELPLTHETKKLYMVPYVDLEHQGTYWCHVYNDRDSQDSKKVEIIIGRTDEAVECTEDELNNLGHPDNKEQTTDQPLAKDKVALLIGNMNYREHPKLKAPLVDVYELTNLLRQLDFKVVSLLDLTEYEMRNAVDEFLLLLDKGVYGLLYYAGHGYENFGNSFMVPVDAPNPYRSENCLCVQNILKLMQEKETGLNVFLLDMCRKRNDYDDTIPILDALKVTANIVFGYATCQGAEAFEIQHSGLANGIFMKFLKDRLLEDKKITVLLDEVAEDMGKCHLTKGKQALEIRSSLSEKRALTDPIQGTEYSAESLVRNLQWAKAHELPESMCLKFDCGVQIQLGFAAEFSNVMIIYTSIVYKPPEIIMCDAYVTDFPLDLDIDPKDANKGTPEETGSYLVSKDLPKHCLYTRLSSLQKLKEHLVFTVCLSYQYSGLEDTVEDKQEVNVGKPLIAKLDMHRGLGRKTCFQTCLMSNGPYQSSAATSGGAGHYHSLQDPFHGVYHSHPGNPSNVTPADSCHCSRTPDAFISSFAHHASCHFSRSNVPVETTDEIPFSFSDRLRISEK
Put plainly: The assay buffer consists of 200 mM Tris/HCl at pH 7.5, 0.8 M Na citrate, 100 μM EGTA, 100 μM DTT and 0.05% (w/v) CHAPS. […] Test compounds were dissolved in 100% (v/v) DMSO or a mixture containing 90% (v/v) DMSO and 10% (v/v) H2O at a stock concentration of 100 mM. Serial dilutions of test compounds were prepared using either 100% (v/v) DMSO or a mixture containing 90% (v/v) DMSO and 10% (v/v) H2O.

With `CCOc1ncc(NC(=O)Nc2cnc3cc(Cl)nn3c2C(C)C)cc1Cl`, the IC50 – broadly, the midpoint of a concentration-inhibition curve – turned out to be 5 nM.
